# Measurements: ChEMBL document CHEMBL4421722, “Inhibitors of protein prenyltransferases” (2013)
# Organism: Rattus norvegicus
# Experiment: Inhibition of rat recombinant geranylgeranyltransferase type I expressed in Escherichia coli assessed as residual enzyme activity for geranylgeranylation of K-Ras4B at 50 uM incubated for 30 mins in presence of [3H]GGPP by scintillation counting assay relative to control
row,Activity,SMILES
1,58.2%,COc1ccc([C@@H]2CC=C(C(=O)O)[C@H](c3cccc(Br)c3)N2S(=O)(=O)c2ccccc2)cc1
2,71.6%,CCCCCCS[C@@H]1C[C@@H](c2ccc(C)cc2)N(S(=O)(=O)c2ccc(Cl)cc2)C[C@H]1C(=O)O
3,98.9%,C=CCS[C@@H]1C[C@@H](c2ccccc2)N(S(=O)(=O)c2ccc(C)cc2)C[C@H]1C(=O)O
4,55%,CS(=O)(=O)N1[C@@H](c2ccc(Cl)cc2)C(C(=O)O)=CC[C@H]1c1ccc(Cl)cc1
5,65.4%,CCOc1ccc([C@@H]2C[C@@H](Sc3ccc(C)cc3)[C@H](C(=O)O)CN2S(=O)(=O)c2ccc(C)cc2)cc1
6,32.6%,O=C(O)C1=CC[C@@H](c2ccc(Cl)cc2)N(S(=O)(=O)c2ccc(Cl)cc2)[C@H]1c1ccc(Br)cc1
7,45.7%,CCc1ccc([C@@H]2C[C@@H](Sc3ccccc3)[C@H](C(=O)O)CN2S(=O)(=O)c2ccc(C)cc2)cc1
8,51.1%,Cc1ccc([C@@H]2C[C@@H](SCc3ccc(Cl)cc3)[C@H](C(=O)O)CN2S(C)(=O)=O)cc1
9,63.2%,Cc1ccc([C@@H]2C[C@@H](Sc3ccccc3)[C@H](C(=O)O)CN2S(=O)(=O)c2ccc(C)cc2)cc1
10,84.6%,CCS[C@@H]1C[C@@H](c2ccc(CC)cc2)N(S(=O)(=O)c2ccc(C)cc2)C[C@H]1C(=O)O
11,97%,COc1ccc(S[C@@H]2C[C@@H](c3ccc(OC)cc3)N(S(=O)(=O)c3ccc(C)cc3)C[C@H]2C(=O)O)cc1
12,93.4%,Cc1ccc(S(=O)(=O)N2C[C@@H](C(=O)O)[C@H](SC3CCCC3)C[C@H]2c2ccccc2F)cc1
13,95.9%,CCOc1ccc([C@@H]2C[C@@H](SCCC(C)C)[C@H](C(=O)O)CN2S(=O)(=O)c2ccc(C)cc2)cc1
14,77.8%,Cc1ccc(S[C@@H]2C[C@@H](c3ccc4c(c3)OCO4)N(S(=O)(=O)c3ccc(C)cc3)C[C@H]2C(=O)O)cc1
15,37.4%,Cc1ccc(S(=O)(=O)N2C[C@@H](C(=O)O)[C@H](SCc3ccc(Cl)cc3)C[C@H]2c2ccc3c(c2)OCO3)cc1
16,60.8%,Cc1ccc(S(=O)(=O)N2[C@@H](c3ccc(Br)cc3)C(C(=O)O)=CC[C@H]2c2cccc(F)c2)cc1
17,57.3%,COc1ccc([C@@H]2C[C@@H](SCc3ccccc3)[C@H](C(=O)O)CN2S(=O)(=O)c2ccccc2)cc1
18,91.5%,COc1ccc([C@@H]2C[C@@H](SC3CCCC3)[C@H](C(=O)O)CN2S(=O)(=O)c2ccc(C)cc2)cc1
19,66.2%,CCOc1ccc([C@@H]2CC=C(C(=O)O)[C@H](c3ccc(F)cc3)N2S(=O)(=O)c2ccc(C)cc2)cc1
20,109%,C=CCS[C@@H]1C[C@@H](c2ccc(OC)c(OC)c2)N(S(=O)(=O)c2ccc(C)cc2)C[C@H]1C(=O)O
21,46.3%,C=CCS[C@@H]1C[C@@H](c2cccc(Cl)c2)N(S(=O)(=O)c2ccc(C)cc2)C[C@H]1C(=O)O
22,110%,CC(=O)C1=CC[C@@H](c2ccc(C)cc2)N(S(=O)(=O)c2ccccc2[N+](=O)[O-])C1
23,50%,Cc1ccc([C@@H]2CC=C(C(=O)O)[C@H](c3cccc(Br)c3)N2S(=O)(=O)c2ccccc2C)cc1
24,63.8%,Cc1ccc([C@@H]2CC=C(C(=O)O)[C@H](c3ccc(Cl)cc3)N2S(=O)(=O)c2ccc(Cl)cc2)cc1
25,69.8%,CCCS[C@@H]1C[C@@H](c2ccc(C)cc2)N(S(=O)(=O)c2ccc(C)cc2)C[C@H]1C(=O)O
26,83.6%,CCS[C@@H]1C[C@@H](c2ccc(C)cc2)N(S(=O)(=O)c2ccccc2C)C[C@H]1C(=O)O

row,Activity,SMILES
1,99%,CC(=O)C1=CC[C@@H](c2ccc(C)cc2)N(S(=O)(=O)c2ccccc2)C1
2,95.8%,COc1cccc([C@@H]2CC=C(C(=O)O)[C@H](c3ccc(C(C)(C)C)cc3)N2S(=O)(=O)c2ccc(C)cc2)c1
3,84.8%,COc1ccc([C@@H]2C[C@@H](Sc3ccc(C)cc3)[C@H](C(=O)O)CN2S(=O)(=O)c2ccccc2)cc1
4,82.3%,COc1ccc([C@@H]2CC=C(C(=O)O)[C@H](c3ccc(Br)cc3)N2S(=O)(=O)c2ccccc2)cc1
5,43.5%,COc1cc([C@@H]2C[C@@H](SCCc3ccccc3)[C@H](C(=O)O)CN2S(=O)(=O)c2ccc(C)cc2)cc(OC)c1OC
6,76.2%,Cc1ccc(S(=O)(=O)N2[C@@H](c3cccc(F)c3)C(C(=O)O)=CC[C@H]2c2ccc(Cl)cc2)cc1
7,74.4%,Cc1ccc([C@@H]2CC=C(C(=O)O)[C@H](c3ccc(C(C)(C)C)cc3)N2S(=O)(=O)c2ccc(Cl)cc2)cc1
8,76.2%,COc1ccc([C@@H]2CC=C(C(=O)O)[C@H](c3ccc(Br)cc3)N2S(=O)(=O)c2ccc(Cl)cc2)cc1
9,95.4%,C=CCS[C@@H]1C[C@@H](c2ccc(OC)cc2)N(S(=O)(=O)c2ccc(Cl)cc2)C[C@H]1C(=O)O
10,110%,Cc1ccc([C@@H]2C[C@@H](SC3CCCC3)[C@H](C(=O)O)CN2S(C)(=O)=O)cc1
11,68.1%,Cc1ccc(S(=O)(=O)N2[C@@H](c3ccc(F)cc3)C(C(=O)O)=CC[C@H]2c2ccccc2)cc1
12,64.5%,COC(=O)c1ccccc1S(=O)(=O)N1[C@@H](c2cccc(F)c2)C(C(=O)O)=CC[C@H]1c1ccc(C)cc1
13,66.7%,Cc1ccc(S(=O)(=O)N2[C@@H](c3cccc(Cl)c3)C(C(=O)O)=CC[C@H]2c2ccc(F)cc2)cc1
14,56.7%,Cc1ccc([C@@H]2CC=C(C(=O)O)[C@H](c3cccc(Cl)c3)N2S(=O)(=O)c2ccccc2)cc1
15,72.9%,CCCCCCS[C@@H]1C[C@@H](c2ccc(OC)cc2)N(S(=O)(=O)c2ccccc2C)C[C@H]1C(=O)O
16,72.6%,COc1ccc([C@@H]2CC=C(C(=O)O)[C@H](c3ccc(Cl)cc3)N2S(=O)(=O)c2ccc(Cl)cc2)cc1
17,43.7%,CCc1ccc([C@@H]2C[C@@H](SCc3ccc(Cl)cc3)[C@H](C(=O)O)CN2S(=O)(=O)c2ccc(C)cc2)cc1
18,81.4%,COc1ccc([C@@H]2C[C@@H](SCCC(C)C)[C@H](C(=O)O)CN2S(=O)(=O)c2ccc(Cl)cc2)cc1
19,102%,COc1cc([C@@H]2C[C@@H](Sc3ccc(Cl)cc3)[C@H](C(=O)O)CN2S(=O)(=O)c2ccc(C)cc2)cc(OC)c1OC
20,68.1%,Cc1ccc([C@@H]2C[C@@H](SCc3ccc(C(C)(C)C)cc3)[C@H](C(=O)O)CN2S(=O)(=O)c2ccccc2)cc1
21,8.4 to 60%,Cc1ccc([C@@H]2CC=C(C(=O)O)[C@H](c3cccc(Cl)c3)N2S(=O)(=O)c2ccc(Cl)cc2)cc1
22,82%,Cc1ccc([C@@H]2CC=C(C(=O)O)[C@H](c3ccc(Br)cc3)N2S(=O)(=O)c2ccccc2C)cc1
23,78%,Cc1ccc([C@H]2C(C(=O)O)=CC[C@@H](c3ccc(C)cc3)N2S(C)(=O)=O)cc1
24,69.2%,Cc1ccc(S(=O)(=O)N2[C@@H](c3ccc(Br)cc3)C(C(=O)O)=CC[C@H]2c2cccc(Cl)c2)cc1
25,85.8%,COc1ccc([C@@H]2CC=C(C(=O)O)[C@H](c3cccc(C)c3)N2S(=O)(=O)c2ccc(Cl)cc2)cc1
26,80.4%,CCCCS[C@@H]1C[C@@H](c2ccc3c(c2)OCO3)N(S(=O)(=O)c2ccc(C)cc2)C[C@H]1C(=O)O

row,Activity,SMILES
1,84.4%,Cc1ccc([C@@H]2CC=C(C(=O)O)[C@H](c3ccc(F)cc3)N2S(C)(=O)=O)cc1
2,70.7%,COc1ccc([C@@H]2CC=C(C(=O)O)[C@H](c3ccc(C(C)(C)C)cc3)N2S(=O)(=O)c2ccccc2C)cc1
3,57.9%,Cc1ccc(S(=O)(=O)N2[C@@H](c3ccc(Br)cc3)C(C(=O)O)=CC[C@H]2c2cccc(Br)c2)cc1
4,62%,Cc1ccc(S(=O)(=O)N2[C@@H](c3ccc(F)cc3)C(C(=O)O)=CC[C@H]2c2ccc(Cl)cc2)cc1
5,62.6%,Cc1ccc(S(=O)(=O)N2[C@@H](c3ccc(Br)cc3)C(C(=O)O)=CC[C@H]2c2ccc(F)cc2)cc1
6,34.4%,COc1cccc([C@@H]2C[C@@H](SCc3ccc(Cl)cc3)[C@H](C(=O)O)CN2S(=O)(=O)c2ccc(C)cc2)c1
7,72.2%,CCCCCCS[C@@H]1C[C@@H](c2ccc(Cl)cc2)N(S(=O)(=O)c2ccc(C)cc2)C[C@H]1C(=O)O
8,87%,CCc1ccc([C@@H]2C[C@@H](SC3CCCC3)[C@H](C(=O)O)CN2S(=O)(=O)c2ccc(C)cc2)cc1
9,69.2%,CCc1ccc([C@@H]2CC=C(C(=O)O)[C@H](c3ccc(Br)cc3)N2S(=O)(=O)c2ccc(C)cc2)cc1
10,78.9%,COc1ccc([C@@H]2C[C@@H](SCc3ccc(C(C)(C)C)cc3)[C@H](C(=O)O)CN2S(=O)(=O)c2ccc(C)cc2)cc1OC
11,80.4%,Cc1ccc(S[C@@H]2C[C@@H](c3ccccc3F)N(S(=O)(=O)c3ccc(C)cc3)C[C@H]2C(=O)O)cc1
12,91.5%,CCS[C@@H]1C[C@@H](c2ccc3c(c2)OCO3)N(S(=O)(=O)c2ccc(C)cc2)C[C@H]1C(=O)O
13,91.6%,COc1ccc([C@@H]2C[C@@H](SCC(C)C)[C@H](C(=O)O)CN2S(=O)(=O)c2ccc(C)cc2)cc1OC
14,78.2%,Cc1ccc([C@@H]2CC=C(C(=O)O)[C@H](c3ccc(C(C)(C)C)cc3)N2S(C)(=O)=O)cc1
15,75.6%,Cc1ccc(S(=O)(=O)N2[C@@H](c3cccc(F)c3)C(C(=O)O)=CC[C@H]2c2cccc(C)c2)cc1
16,99%,COc1ccc(S[C@@H]2C[C@@H](c3ccc(C)cc3)N(S(=O)(=O)c3ccccc3C)C[C@H]2C(=O)O)cc1
17,88.7%,Cc1ccc(S(=O)(=O)N2C[C@@H](C(=O)O)[C@H](SC3CCCC3)C[C@H]2c2cccc(Cl)c2)cc1
18,97.2%,CCCCCCS[C@@H]1C[C@@H](c2ccc(OC)c(OC)c2)N(S(=O)(=O)c2ccc(C)cc2)C[C@H]1C(=O)O
19,89.9%,Cc1ccc([C@@H]2CC=C(C(=O)O)[C@H](c3cccc(C)c3)N2S(=O)(=O)c2ccc(Cl)cc2)cc1
20,75%,CCCS[C@@H]1C[C@@H](c2cc(OC)c(OC)c(OC)c2)N(S(=O)(=O)c2ccc(C)cc2)C[C@H]1C(=O)O
21,54.5%,Cc1ccc([C@@H]2CC=C(C(=O)O)[C@H](c3cccc(F)c3)N2S(=O)(=O)c2ccc(Cl)cc2)cc1
22,90.4%,CCS[C@@H]1C[C@@H](c2cc(OC)c(OC)c(OC)c2)N(S(=O)(=O)c2ccc(C)cc2)C[C@H]1C(=O)O
23,70.1%,Cc1ccc(S(=O)(=O)N2[C@@H](c3cccc(F)c3)C(C(=O)O)=CC[C@H]2c2ccc(F)cc2)cc1
24,91.1%,COc1ccc([C@@H]2C[C@@H](SCCC(C)C)[C@H](C(=O)O)CN2S(=O)(=O)c2ccc(C)cc2)cc1OC
